# Patent US4264577A, “Contraceptive methods and compositions” (Eli Lilly and Company, priority 1980, dated 1981)
# Legend:
# [1] = target: T1, Testicular bovine hyaluronidase (Bos taurus, UniProt Q2YDK3); test: Hyaluronidase inhibition in vitro (chondroitin sulfate agar plate); format: biochemical; conditions: for % Inhibition: Conc. of Test Sol. 10 mg/ml; for inhibition at 1000 µg/mL: Conc. of Test Solution 1 mg/ml
# T1 construct: purchased Sigma Chemical Company; host or cells: bovine testis
# T1 sequence (Q2YDK3 36-553): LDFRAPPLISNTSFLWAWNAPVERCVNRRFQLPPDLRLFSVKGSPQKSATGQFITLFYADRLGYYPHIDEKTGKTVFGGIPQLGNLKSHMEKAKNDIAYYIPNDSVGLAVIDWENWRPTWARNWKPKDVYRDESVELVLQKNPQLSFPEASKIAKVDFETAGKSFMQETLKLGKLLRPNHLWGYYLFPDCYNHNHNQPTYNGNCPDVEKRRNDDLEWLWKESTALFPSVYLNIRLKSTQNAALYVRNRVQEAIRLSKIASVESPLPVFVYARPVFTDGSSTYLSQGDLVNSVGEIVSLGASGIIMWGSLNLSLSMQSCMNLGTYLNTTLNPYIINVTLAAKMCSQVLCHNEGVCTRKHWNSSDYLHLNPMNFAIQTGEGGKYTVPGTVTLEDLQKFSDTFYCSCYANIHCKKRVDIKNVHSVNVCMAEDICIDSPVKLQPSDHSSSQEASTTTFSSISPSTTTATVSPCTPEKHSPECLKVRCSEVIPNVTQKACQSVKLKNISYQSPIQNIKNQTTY
# Experimental: The inhibition of hyaluronidase is assessed using chondroitin sulfate as the enzyme substrate according to the following procedure:
# Agar plates containing chondroitin sulfate (0.1 percent) are prepared by the following method: water solutions of 1 percent agarose, 2 M sodium chloride (0.1 vol.), 1 M sodium acetate (pH 5.0, 0.1 vol), and sodium azide (0.5 mg./ml., 0.1 vol.) are mixed and the mixture is brought to the boiling temperature. […] After cooling to about 45° C., the resulting mixture (20 ml.) is poured onto a petri dish. The plates are allowed to cool to room temperature. A well 2 mm. in diameter is then cut in the agar surface. […] A control using only the buffer solution without added test compound is also run. The plates are then incubated overnight (about 16 hours) at 37° C. The zones of hydrolysis of chondroitin sulfate by hyaluronidase are visualized by flooding the plate with 10 percent cetyl trimethyl ammonium bromide. The area of the zone is logarithmically proportional to the concentration of hyaluronidase. Inhibitor activity is determined by comparing the area of hydrolysis from the test compound to the area of hydrolysis from the control. The results are expressed as percent inhibition calculated as follows: [formula]
# [2] = target: T2, Acrosin (purified from boar sperm) (Sus scrofa, UniProt P08001); test: Acrosin inhibition in vitro (BAPNA substrate); format: biochemical; design: Inhibition (units/mg): dose or concentration left out as unconfirmed; conditions: for Inhibition (units/mg): other salts; for Inhibition (units/mg.): sodium salts
# T2 construct: purified from boar sperm; from tissue; host or cells: boar sperm
# Experimental: A control using the buffer solution without the test compound added is also run. A 200 μl-sample of the incubation mixture is then withdrawn and is added to a cuvette containing BAPNA (1 ml.) and triethanolamine buffer (2 ml.). The mixture is stirred and placed in a Gilford recording spectrophotometer. The increase in optical density at 383 nm is measured. One unit of acrosin activity is defined as the amount of acrosin which will cause an increase in optical density at 383 nm. of 0.001/minute. One unit of inhibitory activity is defined as the amount of inhibitor which will cause a reduction in the increase in optical density at 383 nm. of 0.001/minute.
# [3] = sodium salts, Conc. of Test Solution 10 mg/ml
# [4] = Conc. of Test Solution 10 Mg/ml
# T2 sequence (P08001 40-338 limits assumed): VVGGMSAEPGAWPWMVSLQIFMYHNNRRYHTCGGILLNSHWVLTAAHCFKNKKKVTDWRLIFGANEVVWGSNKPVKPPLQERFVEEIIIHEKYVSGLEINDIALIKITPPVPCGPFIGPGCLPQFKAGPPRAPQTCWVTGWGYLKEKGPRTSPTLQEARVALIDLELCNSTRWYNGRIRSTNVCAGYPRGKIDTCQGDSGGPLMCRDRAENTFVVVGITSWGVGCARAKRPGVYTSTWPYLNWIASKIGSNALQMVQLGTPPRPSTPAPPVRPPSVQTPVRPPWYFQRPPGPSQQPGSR
# T2 sequence (P08001 17-39 limits assumed): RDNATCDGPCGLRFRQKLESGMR
Structure (SMILES),inhibition at 1000 µg/mL ([1]; sodium salts) [%],Inhibition (units/mg.) ([2]; Conc. of Test Solution 1 Mg/ml),further results
CCCCCCCCCCCCOS(=O)(=O)O [CH3 (CH2)11 diethanolammonium],–,–,"inhibition at 10000 µg/mL ([1]; 16 h, other salts, Conc. of Test Sol. 10 mg/ul): 100%; Inhibition (units/mg) [2]: 90,000 units/mg"
CCCCCCCCCCCCCCOS(=O)(=O)O [CH3 (CH2)13 K],–,–,"% Inhibition ([1]; other salts): 27%; Inhibition (units/mg) [2]: 62,000 units/mg"
CCCCCCCCCCCCC(C)OS(=O)(=O)O (stereo not drawn) [2-tetradecyl],100,"87,000 units/mg.",–
CCCCCCCCCCCCCCOS(=O)(=O)O [CH3 (CH2)13 Ca],–,–,"% Inhibition ([1]; other salts): 38%; Inhibition (units/mg) [2]: 48,000 units/mg"
CCCCCCCCCCCCCCCCCOS(=O)(=O)O [n-heptadecyl],–,–,"inhibition at 10000 µg/mL [1, 3]: 23%; Inhibition (units/mg.) [2, 4]: 18,300 units/mg."
CCCCCCCCCCCCCCCOS(=O)(=O)O [n-pentadecyl],–,–,"inhibition at 10000 µg/mL [1, 3]: 60%; Inhibition (units/mg.) [2, 4]: 14,300 units/mg."
CC(C)CCCCCCCCCCCOS(=O)(=O)O [12-methyltridecyl],7,"172,000 units/mg.",–
CCCCC/C=C\C/C=C\CCCCCCCCOS(=O)(=O)O [linoleyl],0,"210,000 units/mg.",–
CCCCCCCCCCCCCCCCCCCCOS(=O)(=O)O [n-eicosyl],–,–,"inhibition at 10000 µg/mL [1, 3]: 0%; Inhibition (units/mg.) [2, 4]: 31,800 units/mg."
"CCCCCCCCCCCCOS(=O)(=O)[O-].[Na+] [n-dodecyl, Sodium lauryl sulfate]",–,–,"inhibition at 10000 µg/mL [1, 3]: 71%"
CCCCCCCCCCCCCCOS(=O)(=O)O [CH3 (CH2)13 Mg],–,–,"% Inhibition ([1]; other salts): 14%; Inhibition (units/mg) [2]: 59,000 units/mg"
CCCCCCCC(CCCCCC)OS(=O)(=O)O (stereo not drawn) [7-tetradecyl],0,"112,000 units/mg.",–
CCCCCCCCCCCCCCOS(=O)(=O)O [CH3 (CH2)13 NH4],–,–,"% Inhibition ([1]; other salts): 14%; Inhibition (units/mg) [2]: 47,000 units/mg"
CCCCCCCCC(CCCCC)OS(=O)(=O)O (stereo not drawn) [6-tetradecyl],12,"90,000 units/mg.",–
CCCCCCCCCC(CCCCCC)OS(=O)(=O)O (stereo not drawn) [7-hexadecyl],0,"123,000 units/mg.",–
CCCCCCCCC(CCCCCCC)OS(=O)(=O)O (stereo not drawn) [8-hexadecyl],0,"28,000 units/mg.",–
CCCCCCCCCCC(CCC)OS(=O)(=O)O (stereo not drawn) [4-tetradecyl],0,"102,000 units/mg.",–
CCCCCCCCCCCCCOS(=O)(=O)O [n-tridecyl],–,–,"inhibition at 10000 µg/mL [1, 3]: 80%; Inhibition (units/mg.) [2, 4]: 3,200 units/mg."
CCCCCCCCCCCCCCCCOS(=O)(=O)O [n-hexadecyl],–,–,"inhibition at 10000 µg/mL [1, 3]: 75%; Inhibition (units/mg.) [2, 4]: 15,200 units/mg."
CCCCCCCCCCCCCCOS(=O)(=O)O [CH3 (CH2)13 Li],–,–,"% Inhibition ([1]; other salts): 27%; Inhibition (units/mg) [2]: 58,000 units/mg"
CCCCCCCCCCCCCCCCCCOS(=O)(=O)O [n-octadecyl],–,–,"inhibition at 10000 µg/mL [1, 3]: 30%; Inhibition (units/mg.) [2, 4]: 26,000 units/mg."
CCCCCCCCCCC(CCCCCCCC)COS(=O)(=O)O (stereo not drawn) [2-octyldodecyl],0,"132,000 units/mg.",–
CCCCCCCCCCCOS(=O)(=O)O [n-hendecyl],–,–,"inhibition at 10000 µg/mL [1, 3]: 100%; Inhibition (units/mg.) [2, 4]: 0 units/mg."
"CC(C)CCCC(C)CCCC(C)CCOS(=O)(=O)O (stereo not drawn) [3,7,11-trimethyldodecyl]",39,"29,000 units/mg.",–
CCCCCCCCCC(CCCCCCCC)OS(=O)(=O)O (stereo not drawn) [9-octadecyl],7,"148,000 units/mg.",–

# The next lines start with results.
inhibition at 1000 µg/mL ([1]; sodium salts) [%],Inhibition (units/mg.) ([2]; Conc. of Test Solution 1 Mg/ml),Structure (SMILES),further results
0,"240,000 units/mg.",CC(C)CCCC(C)CCOS(=O)(=O)O (stereo not drawn) [tetrahydrogeranyl],–
13,"216,000 units/mg.",CCCC/C=C/CCCCCCCCOS(=O)(=O)O [myristeladyl],–
0,"123,000 units/mg.",CCCCCCCCCCCCCCCCCCCCCCCCOS(=O)(=O)O [n-tetracosyl],–
13,"160,000 units/mg.",CCCC/C=C\CCCCCCCCOS(=O)(=O)O [myristoleyl],–
0,"300,000 units/mg.",CCCCCCCCCCCCCCCCCCCCCCOS(=O)(=O)O [n-docosyl],–
0,"152,000 units/mg.",CCCCCCCC/C=C\CCCCCCCCOS(=O)(=O)O [oleyl],–
0,"100,000 units/mg.",CCCCCCCCCCCCCCCCCCCCCCCCCCCOS(=O)(=O)O [n-heptacosyl],–
